Laboratory results published in the NIST ThermoML archive (doi:10.1016/j.jct.2016.04.003).
Numbers after ± are expanded uncertainties.

Assay: xn = mol fraction of the nth substance listed
Conditions: for surface tension liquid-gas: Drop volume; for viscosity / speed of sound / mass density: 99 kPa, Liquid; for viscosity: Capillary tube (Ostwald / Ubbelohde) method; for speed of sound: Frequency=3 MHz, Sing-around technique in a fixed-path interferometer; for mass density: Vibrating tube method

## CCCC[n+]1ccccc1.F[B-](F)(F)F [1-butylpyridinium tetrafluoroborate] + O
293.15 K, x1 = 0.0115
  surface tension liquid-gas: 57.1 ± 0.6 mN/m
293.15 K, x1 = 0.0185
  surface tension liquid-gas: 54.3 ± 0.6 mN/m
293.15 K, x1 = 0.0271
  surface tension liquid-gas: 52.5 ± 0.6 mN/m
293.15 K, x1 = 0.0372
  surface tension liquid-gas: 51.3 ± 0.6 mN/m
293.15 K, x1 = 0.0456
  surface tension liquid-gas: 50.7 ± 0.5 mN/m
293.15 K, x1 = 0.0942
  surface tension liquid-gas: 49.2 ± 0.5 mN/m
293.15 K, x1 = 0.1907
  surface tension liquid-gas: 48.7 ± 0.5 mN/m
293.15 K, x1 = 0.2846
  surface tension liquid-gas: 48.3 ± 0.5 mN/m
293.15 K, x1 = 0.34
  surface tension liquid-gas: 48.3 ± 0.5 mN/m
293.15 K, x1 = 0.3866
  surface tension liquid-gas: 48 ± 0.5 mN/m
293.15 K, x1 = 0.486
  surface tension liquid-gas: 47.7 ± 0.5 mN/m
293.15 K, x1 = 0.5777
  surface tension liquid-gas: 47.5 ± 0.5 mN/m
293.15 K, x1 = 0.6943
  surface tension liquid-gas: 47.3 ± 0.5 mN/m
293.15 K, x1 = 0.7779
  surface tension liquid-gas: 47 ± 0.5 mN/m
293.15 K, x1 = 0.835
  surface tension liquid-gas: 46.8 ± 0.5 mN/m
293.15 K, x1 = 0.925
  surface tension liquid-gas: 46.8 ± 0.6 mN/m
293.15 K, x1 = 1
  surface tension liquid-gas: 46.9 ± 0.6 mN/m
  viscosity: 220.5 ± 18 mPa·s
  speed of sound: 1611.5 ± 1.6 m/s
  mass density: 1217.1 ± 1.1 kg/m3
293.15 K, x1 = 0.047
  viscosity: 1.379 ± 0.11 mPa·s
293.15 K, x1 = 0.095
  viscosity: 1.806 ± 0.14 mPa·s
293.15 K, x1 = 0.2001
  viscosity: 3.439 ± 0.28 mPa·s
293.15 K, x1 = 0.2912
  viscosity: 5.459 ± 0.44 mPa·s
293.15 K, x1 = 0.4015
  viscosity: 10.4 ± 0.83 mPa·s
293.15 K, x1 = 0.4807
  viscosity: 15.2 ± 1.2 mPa·s
293.15 K, x1 = 0.5815
  viscosity: 23.72 ± 1.9 mPa·s
293.15 K, x1 = 0.6641
  viscosity: 34.53 ± 2.8 mPa·s
293.15 K, x1 = 0.7855
  viscosity: 67.74 ± 5.4 mPa·s
293.15 K, x1 = 0.8875
  viscosity: 121.1 ± 9.8 mPa·s
293.15 K, x1 = 0.9305
  viscosity: 149.6 ± 12 mPa·s
293.15 K, x1 = 0.9705
  viscosity: 189.6 ± 16 mPa·s
293.15 K, x1 = 0.0165
  speed of sound: 1539 ± 1.3 m/s
  mass density: 1028.6 ± 1.1 kg/m3
293.15 K, x1 = 0.0379
  speed of sound: 1572.7 ± 1.2 m/s
  mass density: 1058 ± 1 kg/m3
293.15 K, x1 = 0.0863
  speed of sound: 1606.7 ± 1.2 m/s
  mass density: 1100.2 ± 1 kg/m3
293.15 K, x1 = 0.101
  speed of sound: 1612.3 ± 1.2 m/s
  mass density: 1109.3 ± 1 kg/m3
293.15 K, x1 = 0.134
  speed of sound: 1620.9 ± 1.3 m/s
  mass density: 1125.6 ± 1 kg/m3
293.15 K, x1 = 0.243
  speed of sound: 1630 ± 1.3 m/s
  mass density: 1158.2 ± 1 kg/m3
293.15 K, x1 = 0.289
  speed of sound: 1629.4 ± 1.3 m/s
  mass density: 1167 ± 1 kg/m3
293.15 K, x1 = 0.3456
  speed of sound: 1627.7 ± 1.3 m/s
  mass density: 1175.6 ± 1 kg/m3
293.15 K, x1 = 0.4217
  speed of sound: 1624.5 ± 1.3 m/s
  mass density: 1184.5 ± 1 kg/m3
293.15 K, x1 = 0.5485
  speed of sound: 1619.7 ± 1.4 m/s
  mass density: 1195.4 ± 1 kg/m3
293.15 K, x1 = 0.6029
  speed of sound: 1618 ± 1.4 m/s
  mass density: 1199 ± 1 kg/m3
293.15 K, x1 = 0.7232
  speed of sound: 1614.9 ± 1.4 m/s
  mass density: 1205.7 ± 1 kg/m3
293.15 K, x1 = 0.8005
  speed of sound: 1613.5 ± 1.5 m/s
  mass density: 1209.3 ± 1 kg/m3
293.15 K, x1 = 0.8575
  speed of sound: 1612.8 ± 1.5 m/s
  mass density: 1211.7 ± 1 kg/m3
293.15 K, x1 = 0.9315
  speed of sound: 1612 ± 1.5 m/s
  mass density: 1214.5 ± 1.1 kg/m3
303.15 K, x1 = 0.0115
  surface tension liquid-gas: 56.4 ± 0.6 mN/m
303.15 K, x1 = 0.0185
  surface tension liquid-gas: 54 ± 0.6 mN/m
303.15 K, x1 = 0.0271
  surface tension liquid-gas: 52.1 ± 0.6 mN/m
303.15 K, x1 = 0.0372
  surface tension liquid-gas: 51 ± 0.6 mN/m
303.15 K, x1 = 0.0456
  surface tension liquid-gas: 50.4 ± 0.5 mN/m
303.15 K, x1 = 0.0942
  surface tension liquid-gas: 49.1 ± 0.5 mN/m
303.15 K, x1 = 0.1907
  surface tension liquid-gas: 48.5 ± 0.5 mN/m
303.15 K, x1 = 0.2846
  surface tension liquid-gas: 48.1 ± 0.5 mN/m
303.15 K, x1 = 0.34
  surface tension liquid-gas: 47.9 ± 0.5 mN/m
303.15 K, x1 = 0.3866
  surface tension liquid-gas: 47.6 ± 0.5 mN/m
303.15 K, x1 = 0.486
  surface tension liquid-gas: 47.3 ± 0.5 mN/m
303.15 K, x1 = 0.5777
  surface tension liquid-gas: 47 ± 0.5 mN/m
303.15 K, x1 = 0.6943
  surface tension liquid-gas: 46.7 ± 0.5 mN/m
303.15 K, x1 = 0.7779
  surface tension liquid-gas: 46.5 ± 0.5 mN/m
303.15 K, x1 = 0.835
  surface tension liquid-gas: 46.2 ± 0.5 mN/m
303.15 K, x1 = 0.925
  surface tension liquid-gas: 46.2 ± 0.5 mN/m
303.15 K, x1 = 1
  surface tension liquid-gas: 46.3 ± 0.6 mN/m
  viscosity: 119.5 ± 9.7 mPa·s
  speed of sound: 1588.1 ± 1.6 m/s
  mass density: 1210.3 ± 1.1 kg/m3
303.15 K, x1 = 0.047
  viscosity: 1.082 ± 0.087 mPa·s
303.15 K, x1 = 0.095
  viscosity: 1.333 ± 0.11 mPa·s
303.15 K, x1 = 0.2001
  viscosity: 2.475 ± 0.2 mPa·s
303.15 K, x1 = 0.2912
  viscosity: 4.217 ± 0.34 mPa·s
303.15 K, x1 = 0.4015
  viscosity: 7.329 ± 0.59 mPa·s
303.15 K, x1 = 0.4807
  viscosity: 10.67 ± 0.86 mPa·s
303.15 K, x1 = 0.5815
  viscosity: 15.59 ± 1.2 mPa·s
303.15 K, x1 = 0.6641
  viscosity: 22.31 ± 1.8 mPa·s
303.15 K, x1 = 0.7855
  viscosity: 41.77 ± 3.4 mPa·s
303.15 K, x1 = 0.8875
  viscosity: 72.76 ± 5.9 mPa·s
303.15 K, x1 = 0.9305
  viscosity: 90.38 ± 7.3 mPa·s
303.15 K, x1 = 0.9705
  viscosity: 106.5 ± 8.6 mPa·s
303.15 K, x1 = 0.0165
  speed of sound: 1552 ± 1.3 m/s
  mass density: 1025.3 ± 1 kg/m3
303.15 K, x1 = 0.0379
  speed of sound: 1576.9 ± 1.2 m/s
  mass density: 1053.9 ± 1 kg/m3
303.15 K, x1 = 0.0863
  speed of sound: 1600.1 ± 1.2 m/s
  mass density: 1094.8 ± 1 kg/m3
303.15 K, x1 = 0.101
  speed of sound: 1603.2 ± 1.2 m/s
  mass density: 1103.7 ± 1 kg/m3
303.15 K, x1 = 0.134
  speed of sound: 1608.1 ± 1.2 m/s
  mass density: 1119.5 ± 1 kg/m3
303.15 K, x1 = 0.243
  speed of sound: 1610.7 ± 1.3 m/s
  mass density: 1151.3 ± 1 kg/m3
303.15 K, x1 = 0.289
  speed of sound: 1608.8 ± 1.3 m/s
  mass density: 1159.9 ± 1 kg/m3
303.15 K, x1 = 0.3456
  speed of sound: 1606.1 ± 1.3 m/s
  mass density: 1168.3 ± 1 kg/m3
303.15 K, x1 = 0.4217
  speed of sound: 1602.7 ± 1.3 m/s
  mass density: 1177.2 ± 1 kg/m3
303.15 K, x1 = 0.5485
  speed of sound: 1597.4 ± 1.4 m/s
  mass density: 1188 ± 1 kg/m3
303.15 K, x1 = 0.6029
  speed of sound: 1595.6 ± 1.4 m/s
  mass density: 1191.7 ± 1 kg/m3
303.15 K, x1 = 0.7232
  speed of sound: 1592.3 ± 1.4 m/s
  mass density: 1198.5 ± 1 kg/m3
303.15 K, x1 = 0.8005
  speed of sound: 1590.7 ± 1.5 m/s
  mass density: 1202.2 ± 1 kg/m3
303.15 K, x1 = 0.8575
  speed of sound: 1589.7 ± 1.5 m/s
  mass density: 1204.6 ± 1 kg/m3
303.15 K, x1 = 0.9315
  speed of sound: 1588.9 ± 1.5 m/s
  mass density: 1207.6 ± 1.1 kg/m3
